Measurements from patent US20260347399A1, “BRAIN PENETRATING PEPTIDES AND METHODS OF USE” (priority 2022, published 2026).
Ends that are not written are not given here.

Assays:
rat CNS = assay: CVGTNCY peptide-phage biodistribution, rats; assay type: in vivo; settings: peptide-phage i.v., 1 h
Protocol: CVGTNCY (SEQ ID NO:2) peptide-phage or control phage were injected iv into mice, after one hour circulation animals were perfused with 20 ml PBS, organs were collected, weighed, and dropped to 1% NP40-LB solution. Organs were homogenized and titer of each tissue was determined. FAM-labeled peptides (2 mM of peptide in PBS) were injected intravenously and 3 hours later the animals were perfused with 20 mL of PBS. The organs were excised, snap-frozen in the vapor of liquid nitrogen, and stored at −80 °C. For confocal microscopy, the tissues were sectioned at 15 μm and stained with antibodies and DAPI.
To describe the utility of CVGTNCY (SEQ ID NO:2) peptide as a systemic CNS homing peptide, the biodistribution of CVGTNCY (SEQ ID NO:2) peptide-phage as well as peptide-functionalized AgNPs were analyzed in rodents. […] No significant difference between CVGTNCY (SEQ ID NO:2) and G7 titers was determined in the rest of the analyzed organs/tissues).

Reelin = assay: Peptide-phage binding on ELISA plate; set-up: species or system human
Protocol: Reelin protein (#8546-MR-050; R&D Systems), NRP-1 b1b2 (wt and mutant) or 5% BSA was immobilized on Costar 96-Well ELISA plate (#3590, Corning Life Sciences, Tewksbury, MA, USA). The multiwell plates were coated with 20 μg/ml recombinant protein in 100 μl of PBS overnight at +4 °C, followed by blocking with 1% bovine serum albumin (BSA) in PBS overnight at +4 °C. The phage (5×10^8 pfu in 100 μl of PBS-BSA) was incubated overnight at +4 °C, followed by 6 washes with PBS containing 1% BSA and 0.1% Tween-20 (washing buffer) to remove background phages. BLT5615 OD600=0.5 containing 2 mM IPTG was used to recover the phages and determine the titer of samples.
Next, an affinity chromatography was performed to identify a receptor of the CVGTNCY (SEQ ID NO:2), and selected a receptor candidate, which is a secreted extracellular matrix protein Reelin. CVGTNCY (SEQ ID NO:2) binding to Reelin protein was tested by cell free method on ELISA plate. Recombinant human Reelin protein (Ser1221-Gln2666; 163 kDa) was used to coat the ELISA plate and the CVGTNCY (SEQ ID NO:2) peptide-phage was allowed to bind to it. After several washes, the titer of the experiment was determined to rate on the binding efficiency.
Reelin was identified from affinity chromatography proteomics data. […] The binding efficiency was evaluated based on the titer (PFU/ml) of each sample. […]

mouse brain = assay: In vivo phage display with CX4CYX library
Protocol: In vivo phage display with CX4CYX library was performed in three selection rounds. Phage library was injected intravenously to Balb/c mice and allowed to circulate for one hour. After circulation, the animals were anesthetized and perfused intracardially with acid and detergent buffers. Brain and control organs were collected and homogenized in 1% NP40-LB. Bound phages were rescued by amplification in E. coli and their genomic DNA was sequenced by Ion Torrent next generation DNA sequencing system.
A novel phage library CX4CYX was constructed based on the alanine-leucine screen to find new brain homing peptides). This knowledge directed us to construct a novel phage library CX4CYX (X—any amino acid), where Cys1, Cys6 and Tyr7 remained in their intact positions, and the four amino acid variable-domain laid between the cysteines, and one amino acid variability after Tyr7. Three rounds of phage bio-panning was performed to allow enrichment of peptides in the brain. Again acid and detergent buffers were used for perfusion to remove non-specifically bound phages from the brain after systemic administration of phage library (round 1) and recovered brain phage pools (round 2 and 3). HTS reads from round 1 to round 3 indicated decent enrichment of in-frame peptides in the brain (Table 6).

brain parenchyma = assay: Peptide-phage homing in vivo vs ex vivo; set-up: species or system mouse
Neuro2A cells = assay: In vitro AgNP binding and internalization; assay type: cell-based, mouse; settings: pre-incubated with 100 μM free peptide, 1 h, 37 °C
Protocol: To assess the binding and uptake of silver nanoparticles functionalized with Cerepep, Neuro2A were cultured in 24-well plates on polylysine coated glass coverslips until 80-90% confluency. Biotinylated Cerepep peptide or biotin as a non-targeted control and CF555 dye were conjugated to neutravidin-AgNPs prepared as described previously (Tobi et al., 2021). Some samples were pre-incubated with 100 μM Cerepep peptide (Ac-SERVISRAKLAAAL-OH (SEQ ID NO:9), where Ac-acetylation) at 37 °C for 1 h to assess whether the binding and internalization of particles is peptide-dependent. 10 μl (OD=100) of CP-AgNPs or control biotin-AgNPs were added to cells in 500 μl of media and incubated at 37 °C for 1h. In some samples, the cell surface-bound AgNPs were removed with a freshly prepared etching solution containing 10 mM of Na2S2O3 and K3Fe(CN)6 in PBS, which was applied for 3 min. All the samples were washed with DPBS to remove unbound AgNPs. The cells were fixed in methanol, stained with DAPI and analyzed with confocal microscopy as described above.
Next, the interaction of cultured Neuro2A cells with neutravidin-AgNPs labeled with NHS-CF555 dye and functionalized with biotinylated SRRVISRAKLAAAL (SEQ ID NO: 9) (CP-AgNPs) was tested.

P3 stem cells = assay: In vitro phage binding to cells; assay type: cell-based, human; settings: 4 °C, 1 h, highest ratio
Protocol: To assess the binding of Cerepep phage, the cells were cultured in 24-well plates on polylysine coated glass coverslips until 80-90% confluency. The cells were incubated with Cerepep or control insertless peptide-phage at a final concentration of 5×10^7 pfu in 1 ml of DMEM+BSA (1%) at 4 °C for 1 h on a rocking platform. The wells were washed 4 times with 1 ml of DMEM+BSA (1%), the cells were lysed in 1 ml LB+NP40 and the amount of phage bound to the cells was determined by titering.
Binding of SRRVISRAKLAAAL (SEQ ID NO:9) phage to a panel of different cell lines was studied in vitro.

Row | binding to Reelin (Reelin) | Substance | homing to CNS vs other organs (rat CNS) | R1 reads (mouse brain; round 1) [reads] | R3 reads (mouse brain; round 3) [reads] | reads in the brain compared to CAGALCY (mouse brain; round 3, vs CAGALCY) | R3 > R1 (ratio of sequencing reads between round 3 and round 1) (mouse brain; round 3 / round 1) | brain homing in vivo after iv injection (brain parenchyma) | effect of free peptide on binding and internalization of CP-AgNPs (Neuro2A cells) | binding of peptide-phage, fold over insertless phage (P3 stem cells)
1 | specific binding | CVGTNCY | homes preferentially to the CNS than to other organs | 12 | 37038 | about 40 times | 3087 | homes to the brain parenchyma |  | 
2 |  | SRRVISRAKLAAAL [Cerepep, SRRVISRAKLAAAL] |  |  |  |  |  |  | abolished | at least 50 fold
